Experimental data taken from ChEMBL document CHEMBL1135425, “Antitumor agents. 213. Modeling of epipodophyllotoxin derivatives using variable selection k nearest neighbor QSAR method” (J Med Chem, 2002).
Several values for one entry are separate records, joined by “and”; a condition that tells them apart may be missing. Equal values may be shown once.

Molecular target: DNA topoisomerase II (Homo sapiens) (UniProt P11388+Q02880)
Test: Percentage of intracellular covalent DNA-topoisomerase II complexes formed
Type: cell-based

Complex formation	SMILES
10%	COc1cc([C@@H]2c3cc4c(cc3[C@@H](Sc3ccc(O)cc3)[C@H]3COC(=O)[C@H]23)OCO4)cc(OC)c1O
179%	COc1cc([C@@H]2c3cc4c(cc3[C@@H](Nc3ccc(Br)cc3)[C@H]3COC(=O)[C@H]23)OCO4)cc(OC)c1O
73%	CCC(C)N[C@@H]1c2cc3c(cc2[C@@H](c2cc(OC)c(O)c(OC)c2)[C@H]2C(=O)OC[C@@H]21)OCO3 (stereo partly specified)
143%	COc1cc([C@@H]2c3cc4c(cc3[C@@H](NC(=O)NCCCl)[C@H]3COC(=O)[C@H]23)OCO4)cc(OC)c1O
81%	CNC(=O)N[C@@H]1c2cc3c(cc2[C@@H](c2cc(OC)c(O)c(OC)c2)[C@H]2C(=O)OC[C@@H]21)OCO3
211%	COc1cc([C@@H]2c3cc4c(cc3[C@@H](Nc3ccc(C#N)cc3)[C@H]3COC(=O)[C@H]23)OCO4)cc(OC)c1O
100%	COc1cc([C@@H]2c3cc4c(cc3[C@@H](OC(=O)c3cccc(N)c3)[C@H]3COC(=O)[C@H]23)OCO4)cc(OC)c1O
118%	COc1cc([C@@H]2c3cc4c(cc3[C@@H](NC(=O)Nc3ccc(F)cc3)[C@H]3COC(=O)[C@H]23)OCO4)cc(OC)c1O
160%	COc1cc([C@@H]2c3cc4c(cc3[C@@H](NC(=O)c3ccc([N+](=O)[O-])cc3)[C@H]3COC(=O)[C@H]23)OCO4)cc(OC)c1O
147%	COc1cc([C@@H]2c3cc4c(cc3C(Nc3ccc(C(C)=O)cc3)[C@H]3COC(=O)[C@H]23)OCO4)cc(O)c1O (stereo partly specified)
21%	COc1cc([C@@H]2c3cc4c(cc3[C@@H](Nc3cc(C(F)(F)F)cc(C(F)(F)F)c3)[C@H]3COC(=O)[C@H]23)OCO4)cc(OC)c1O
207%	COC(=O)c1ccc(N[C@@H]2c3cc4c(cc3[C@@H](c3cc(OC)c(O)c(OC)c3)[C@H]3C(=O)OC[C@@H]32)OCO4)cc1
164%	COc1cc([C@@H]2c3cc4c(cc3[C@@H](Nc3ccc5c(c3)OCO5)[C@H]3COC(=O)[C@H]23)OCO4)cc(OC)c1O
9%	CCOC(=O)c1ccc(NC2c3cc(OC)c(OC)cc3[C@@H](c3cc(OC)c(OC)c(OC)c3)[C@H]3C(=O)OC[C@H]23)cc1 (stereo partly specified)
279%	COc1cc([C@@H]2c3cc4c(cc3[C@@H](Nc3ccc5c(c3)OCCO5)[C@H]3COC(=O)[C@H]23)OCO4)cc(OC)c1O
138%	CCOC(=O)c1ccc(NC2c3cc(O)c(O)cc3[C@@H](c3cc(OC)c(O)c(OC)c3)[C@H]3C(=O)OC[C@H]23)cc1 (stereo partly specified)
177%	COc1cc([C@@H]2c3cc4c(cc3[C@@H](NC(=O)c3ccccc3)[C@H]3COC(=O)[C@H]23)OCO4)cc(OC)c1O
190% and 183%	COc1cc([C@@H]2c3cc4c(cc3[C@@H](NCCN3CCCCC3)[C@H]3COC(=O)[C@H]23)OCO4)cc(OC)c1O
99%	COc1cc([C@@H]2c3cc4c(cc3[C@@H](NCc3ccc(C(F)(F)F)cc3)[C@H]3COC(=O)[C@H]23)OCO4)cc(OC)c1O
249%	COC(=O)c1cccc(N[C@@H]2c3cc4c(cc3[C@@H](c3cc(OC)c(O)c(OC)c3)[C@H]3C(=O)OC[C@@H]32)OCO4)c1

Complex formation	SMILES
47%	COc1cc([C@@H]2c3cc4c(cc3[C@@H](Nc3cc(OC)c(OC)c(OC)c3)[C@H]3COC(=O)[C@H]23)OCO4)cc(OC)c1O
62%	COc1cc([C@@H]2c3cc(O)c(O)cc3C(Nc3ccc(C#N)cc3)[C@H]3COC(=O)[C@H]23)cc(OC)c1O (stereo partly specified)
167%	COc1cc([C@@H]2c3cc4c(cc3[C@@H](NC[C@H](C)O)[C@H]3COC(=O)[C@H]23)OCO4)cc(OC)c1O
84.1%	C=CCN[C@@H]1c2cc3c(cc2[C@@H](c2cc(OC)c(O)c(OC)c2)[C@H]2C(=O)OC[C@@H]21)OCO3
148%	COc1cc([C@@H]2c3cc4c(cc3[C@@H](NC(=O)Nc3ccccc3)[C@H]3COC(=O)[C@H]23)OCO4)cc(OC)c1O
128%	COc1cc([C@@H]2c3cc4c(cc3[C@@H](NC(=O)c3ccccc3F)[C@H]3COC(=O)[C@H]23)OCO4)cc(OC)c1O
127%	CCOC(=O)c1ccc(NC2c3cc(OC)c(OC)cc3[C@@H](c3cc(OC)c(O)c(OC)c3)[C@H]3C(=O)OC[C@H]23)cc1 (stereo partly specified)
119%	COc1cc([C@@H]2c3cc4c(cc3C(Nc3ccc5c(c3)OCCO5)[C@H]3COC(=O)[C@H]23)OCO4)cc(O)c1O (stereo partly specified)
211%	COc1cc([C@@H]2c3cc4c(cc3[C@@H](Nc3ccc(O)cc3)[C@H]3COC(=O)[C@H]23)OCO4)cc(OC)c1O
8%	COc1cc2c(cc1OC)[C@@H](c1cc(OC)c(OC)c(OC)c1)[C@H]1C(=O)OC[C@@H]1C2Nc1ccc(F)cc1 (stereo partly specified)
125%	COc1cc([C@@H]2c3cc4c(cc3[C@@H](NC(=O)Nc3ccc(Cl)cc3)[C@H]3COC(=O)[C@H]23)OCO4)cc(OC)c1O
111%	COCCN[C@@H]1c2cc3c(cc2[C@@H](c2cc(OC)c(O)c(OC)c2)[C@H]2C(=O)OC[C@@H]21)OCO3
4%	CCOC(=O)c1ccccc1N[C@@H]1c2cc3c(cc2[C@@H](c2cc(OC)c(O)c(OC)c2)[C@H]2C(=O)OC[C@@H]21)OCO3
125%	COc1cc2c(cc1OC)[C@@H](c1cc(OC)c(O)c(OC)c1)[C@H]1C(=O)OC[C@@H]1C2Nc1ccc(C#N)cc1 (stereo partly specified)
15.6%	COc1cc([C@@H]2c3cc4c(cc3[C@@H](O)[C@H]3COC(=O)[C@H]23)OCO4)c(Cl)c(OC)c1O
151%	COc1cc([C@@H]2c3cc4c(cc3[C@@H](Nc3ccccc3O)[C@H]3COC(=O)[C@H]23)OCO4)cc(OC)c1O
75%	COc1cc2c(cc1OC)[C@@H](c1cc(OC)c(O)c(OC)c1)[C@H]1C(=O)OC[C@@H]1C2Nc1ccc([N+](=O)[O-])cc1 (stereo partly specified)
9%	COc1cc([C@@H]2c3cc(O)c(O)cc3[C@@H](Nc3ccccc3)[C@H]3COC(=O)[C@H]23)cc(OC)c1OC
159%	COc1cc([C@@H]2c3cc4c(cc3[C@@H](NCc3cccc(Cl)c3)[C@H]3COC(=O)[C@H]23)OCO4)cc(OC)c1O
290%	COc1cc([C@@H]2c3cc4c(cc3[C@@H](Nc3cccc(O)c3)[C@H]3COC(=O)[C@H]23)OCO4)cc(OC)c1O

SMILES	Complex formation
COc1cc([C@@H]2c3cc4c(cc3[C@@H](NCc3ccc(F)cc3)[C@H]3COC(=O)[C@H]23)OCO4)cc(OC)c1O	169%
COc1ccc(N[C@@H]2c3cc4c(cc3[C@@H](c3cc(OC)c(O)c(OC)c3)[C@H]3C(=O)OC[C@@H]32)OCO4)c([N+](=O)[O-])c1	15%
COC(=O)c1cccc(NC2c3cc4c(cc3[C@@H](c3cc(O)c(O)c(OC)c3)[C@H]3C(=O)OC[C@H]23)OCO4)c1 (stereo partly specified)	94%
COc1cc([C@@H]2c3cc4c(cc3C(Nc3ccc([N+](=O)[O-])cc3)[C@H]3COC(=O)[C@H]23)OCO4)cc(O)c1O (stereo partly specified)	200%
COc1cc([C@@H]2c3cc4c(cc3[C@@H](NCc3ccccc3N)[C@H]3COC(=O)[C@H]23)OCO4)cc(OC)c1O	184%
COc1cc([C@@H]2c3cc4c(cc3[C@@H](NC(=O)c3cccc(C#N)c3)[C@H]3COC(=O)[C@H]23)OCO4)cc(OC)c1O	149%
COc1cc([C@@H]2c3cc4c(cc3[C@@H](Nc3nc5ccccc5[nH]3)[C@H]3COC(=O)[C@H]23)OCO4)cc(OC)c1O	58%
COc1cc([C@@H]2c3cc4c(cc3[C@@H](Nc3ccccc3)[C@H]3COC(=O)[C@H]23)OCO4)cc(OC)c1O	243%
COc1ccc([N+](=O)[O-])cc1N[C@@H]1c2cc3c(cc2[C@@H](c2cc(OC)c(O)c(OC)c2)[C@H]2C(=O)OC[C@@H]21)OCO3	12%
COc1cc([C@@H]2c3cc4c(cc3[C@@H](Nc3cccc(F)c3)[C@H]3COC(=O)[C@H]23)OCO4)cc(OC)c1O	158%
COc1cc(N[C@@H]2c3cc4c(cc3[C@@H](c3cc(OC)c(O)c(OC)c3)[C@H]3C(=O)OC[C@@H]32)OCO4)c(C)cc1[N+](=O)[O-]	3.5%
COc1cc([C@@H]2c3cc4c(cc3[C@@H](NC(=O)c3ccc(C(C)=O)cc3)[C@H]3COC(=O)[C@H]23)OCO4)cc(OC)c1O	124%
COc1cc([C@@H]2c3cc4c(cc3[C@@H](NC(=O)c3ccccc3O)[C@H]3COC(=O)[C@H]23)OCO4)cc(OC)c1O	160%
COc1cc([C@@H]2c3cc4c(cc3[C@@H](NC(=O)c3cccc([N+](=O)[O-])c3)[C@H]3COC(=O)[C@H]23)OCO4)cc(OC)c1O	86%
COc1cc([C@@H]2c3cc4c(cc3[C@@H](NCc3cccc(F)c3)[C@H]3COC(=O)[C@H]23)OCO4)cc(OC)c1O	216%
COc1cc([C@@H]2c3cc4c(cc3[C@@H](Nc3cc(F)cc(F)c3)[C@H]3COC(=O)[C@H]23)OCO4)cc(OC)c1O	115%
COc1cc([C@@H]2c3cc4c(cc3[C@@H](NC(=O)c3ccc(C#N)cc3)[C@H]3COC(=O)[C@H]23)OCO4)cc(OC)c1O	159%
COc1cc([C@@H]2c3cc4c(cc3[C@@H](NCc3ccc([N+](=O)[O-])cc3)[C@H]3COC(=O)[C@H]23)OCO4)cc(OC)c1O	216%
COc1cc([C@@H]2c3cc4c(cc3[C@@H](Nc3ccc(NC(=O)C56CCC(C)(C(=O)O5)C6(C)C)cc3)[C@H]3COC(=O)[C@H]23)OCO4)cc(OC)c1O (stereo partly specified)	88%
COc1cc([C@@H]2c3cc4c(cc3[C@@H](Nc3ccc(F)cc3)[C@H]3COC(=O)[C@H]23)OCO4)cc(OC)c1O	213%
COc1cc([C@@H]2c3cc4c(cc3[C@@H](Nc3ccc(-c5nc6ccccc6[nH]5)cc3)[C@H]3COC(=O)[C@H]23)OCO4)cc(OC)c1O	128%
COc1cc([C@@H]2c3cc4c(cc3[C@@H](Nc3ccc(Cl)cc3)[C@H]3COC(=O)[C@H]23)OCO4)cc(OC)c1O	99%
COc1cc([C@@H]2c3cc4c(cc3[C@@H](Nc3ccccn3)[C@H]3COC(=O)[C@H]23)OCO4)cc(OC)c1O	97%
COc1cc([N+](=O)[O-])c(OC)cc1N[C@@H]1c2cc3c(cc2[C@@H](c2cc(OC)c(O)c(OC)c2)[C@H]2C(=O)OC[C@@H]21)OCO3	4.4%
COc1cc([C@@H]2c3cc4c(cc3[C@@H](Nc3cccc(Cl)c3)[C@H]3COC(=O)[C@H]23)OCO4)cc(OC)c1O	51%
COc1cc([N+](=O)[O-])ccc1N[C@@H]1c2cc3c(cc2[C@@H](c2cc(OC)c(O)c(OC)c2)[C@H]2C(=O)OC[C@@H]21)OCO3	83%
